The source of these data is US20250275953A1, “VODOBATINIB FOR REDUCING PROGRESSION OF PARKINSON'S DISEASE” (Sun Pharma Advanced Research Company Ltd., priority 2022, published 2025).

Structures are written as SMILES.

By IC50 is commonly meant the concentration that inhibits the measured activity by half. Low readings indicate greater potency, high ones weaker potency. For orientation: Kd means the concentration at which binding is half-saturated.

For one experiment, the target named is Abl (Homo sapiens, UniProt P00519). Description: Biochemical kinase assay, native Abl (radiometric substrate phosphorylation). On the procedure: Conventional biochemical kinase assays, using radioactivity and fluorescence as readouts, were used to derive half maximal-inhibitory concentrations (IC50) values.
Inhibition of c-Abl kinase activity by vodobatinib was determined in a radiometric detection assay using γ-33P-labeled-ATP. […] (Abl substrate peptide), 10 mM magnesium acetate, and [γ-33P-ATP]. The reaction was initiated by addition of an MgATP mix. Following incubation for 40 minutes at room temperature, the reaction was stopped by addition of 3% phosphoric acid solution. The radiolabeled substrate was separated onto a P30 filtermat, which was washed with 75 mM phosphoric acid and methanol, and dried, following which radioactivity incorporated into the substrate was determined by scintillation counting. Similar assessments were also carried out using recombinant murine c-Abl enzyme using the identical assay format as described above.

A further experiment addresses c-Abl (Homo sapiens, UniProt P00519). Put plainly: Competition binding KINOMEscan assay (DiscoverX). Conditions: read-out: Kd, Binding Assay hAbl. On the procedure:
The binding affinity of vodobatinib to c-Abl was determined in a competition binding KINOMETM scan assay. […] Liganded beads were blocked with excess biotin, and washed with blocking buffer (SEA BLOCK Pierce), with 1% BSA, 0.05% Tween 20, 1 mM DTT) to remove unbound ligand and reduce non-specific binding. […] The kinase concentration in the eluates was measured by qPCR. The kinase concentrations in test compound treated wells were compared with that in the non-treated wells across the concentration range to generate the Kd values.

Abl, sequence (P00519 whole entry): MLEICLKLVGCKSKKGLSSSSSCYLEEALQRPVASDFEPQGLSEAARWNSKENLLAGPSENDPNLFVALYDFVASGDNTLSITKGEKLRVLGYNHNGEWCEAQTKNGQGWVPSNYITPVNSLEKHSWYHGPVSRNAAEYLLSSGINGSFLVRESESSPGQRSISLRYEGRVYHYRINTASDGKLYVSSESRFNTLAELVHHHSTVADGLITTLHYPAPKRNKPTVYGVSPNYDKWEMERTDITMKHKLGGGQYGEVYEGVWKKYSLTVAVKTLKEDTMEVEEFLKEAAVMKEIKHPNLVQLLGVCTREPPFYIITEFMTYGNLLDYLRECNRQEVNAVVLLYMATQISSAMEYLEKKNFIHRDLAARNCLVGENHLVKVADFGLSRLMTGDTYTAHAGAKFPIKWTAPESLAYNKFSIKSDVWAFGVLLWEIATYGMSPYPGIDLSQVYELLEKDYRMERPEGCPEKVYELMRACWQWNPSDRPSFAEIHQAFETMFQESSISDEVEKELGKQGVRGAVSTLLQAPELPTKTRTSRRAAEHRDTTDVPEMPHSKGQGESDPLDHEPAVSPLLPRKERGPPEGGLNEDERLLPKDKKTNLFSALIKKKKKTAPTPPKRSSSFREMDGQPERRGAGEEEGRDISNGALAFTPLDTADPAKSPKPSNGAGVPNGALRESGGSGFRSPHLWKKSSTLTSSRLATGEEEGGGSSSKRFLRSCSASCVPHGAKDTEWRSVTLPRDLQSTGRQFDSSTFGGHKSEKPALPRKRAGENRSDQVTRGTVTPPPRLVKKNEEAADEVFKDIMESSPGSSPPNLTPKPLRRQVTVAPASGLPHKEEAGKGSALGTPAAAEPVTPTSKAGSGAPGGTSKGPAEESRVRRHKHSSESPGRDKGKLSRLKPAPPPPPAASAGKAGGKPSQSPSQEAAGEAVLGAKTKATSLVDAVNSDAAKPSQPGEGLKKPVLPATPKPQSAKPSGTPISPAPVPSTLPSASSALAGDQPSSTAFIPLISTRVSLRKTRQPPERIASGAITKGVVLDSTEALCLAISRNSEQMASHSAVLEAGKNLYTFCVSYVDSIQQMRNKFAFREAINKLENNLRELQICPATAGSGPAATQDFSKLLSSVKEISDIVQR
c-Abl, sequence (P00519 whole entry): as above

For `Cc1ccc(C(=O)NNC(=O)c2c(C)cccc2Cl)cc1C#Cc1cnc2ccccc2c1` [N′-(2-chloro-6-methylbenzoyl)-4-methyl-3-[2-(3-quinolyl)ethynyl]-benzohydrazide], the “times more potent than nilotinib” value on Abl (0.9 nM vs 20 nM) stood at 20. Moreover, the 50% inhibitory concentration (IC50) against Abl (Table 1) came to 0.9 nM. In addition, the Kd on c-Abl turned out to be 0.98 nM.
